{"source": "patent US8748373B2", "about": "“Hepatitis B virus compositions and methods of use” (priority 2007, dated 2014)", "key": {"HBV [1]": {"test_system": "HBV", "conditions": "patients chronically infected with HBV; cited from earlier work"}, "HDV": {"test_system": "HDV", "assay": "Inhibition of HDV infection of primary human hepatocytes, antigenomic HDV RNA by real-time PCR", "assay_type": "cell-based", "conditions": "for Inhibition of HDV replication: 50 nM final concentration, primary human hepatocytes, 7 days", "description": "(§1) In order to test inhibitory activity of the IA and related proteins, primary human hepatocytes infected in the presence of 5% polyethylene glycol 8000 (Sigma) were used with in vitro assembled HDV at a multiplicity of 10 genome equivalents (GE) per cell, or by HBV at a multiplicity of 50 GE/cell. […] One related protein was the S1S2, lacking the Fc domain (FIG. 1B). Another was a synthetic peptide corresponding to positions 2-48 of the ayw PreS1, with myristoylation at the N terminal glycine as described in Engelke, et al., 2006, Hepatology, 43:750-760. After 7-8 days total, cell RNA was extracted and HDV antigenomic RNA and HBV RNA were quantitated using real-time PCR.\nOthers have shown that peptides based on the N terminus of HBV preS1 are able to interfere with infection of primary hepatocytes and of HepaRG cells, a cell line made from a differentiated liver tumor (Gripon, et al., 2005, J. Virol., 79:1613-1622, Gripon, et al., 2002, Proc. Natl. Acad. Sci., USA 99:15655-15660). […] Secreted IAs were tested for their ability to interfere with the infection of primary human hepatocytes by HDV. For these studies the source of IA was simple dilutions of the media from transiently transfected cells that both expressed and secreted the IA. To assess HDV replication the total RNA was extracted after 7 days and antigenomic RNA was quantitated by real-time PCR."}, "HBV [2]": {"test_system": "HBV", "assay": "Inhibition of HBV infection of primary human hepatocytes, HBV RNA by real-time PCR", "assay_type": "cell-based, Hepatitis B virus", "description": "as §1\nIn parallel with the experiment shown in FIG. 4B, experiments were designed to determined whether S1S2-IA would also act on HBV infection."}, "[3]": {"assay": "Ultracentrifugation of media to test whether released IA is a soluble protein", "assay_type": "physicochemical", "conditions": "conditions that pellet HDV and HBV subviral particles", "description": "In addition, experiments were designed to tested whether the released IA was actually a soluble protein. Media samples containing albumin and secreted […] were clarified by low speed centrifugation and then subjected to ultracentrifugation, using conditions that pellet HDV and HBV subviral particles. It was observed that about >85% of the albumin and S1S2-IA remained in the supernatant. Without wishing to be bound by any particular theory, it is believed that because the IAs behaved similar to albumin, than IAs were soluble proteins."}, "HBV [4]": {"test_system": "HBV", "conditions": "in vivo; cited from earlier work"}}, "data": [{"compound": "C=C1[C@H](CO)[C@@H](O)C[C@@H]1n1cnc2c(=O)[nH]c(N)nc21", "note": "[Entecavir]", "values": [{"measurement": "Suppression of HBV levels in serum", "setting": "HBV [1]", "value": "100,000 fold"}]}, {"compound": "S1-IA: immunoadhesin: HBV preS1 domain (1-119, adw2) fused N terminally to Fc region of a rabbit IgG heavy chain", "values": [{"measurement": "Inhibition of HDV replication", "setting": "HDV", "value": 90, "unit": "%"}]}, {"compound": "S1S2-IA: immunoadhesin: HBV preS1 plus preS2 domains fused to Fc region of a rabbit IgG heavy chain", "values": [{"measurement": "Inhibition of HDV replication", "setting": "HDV", "value": 90, "unit": "%"}, {"measurement": "Effect of 30 minute pretreatment on level of inhibition of HDV", "setting": "HDV; pretreatment in addition to treatment during infection", "value": "did not significantly increase the level of inhibition"}, {"measurement": "Inhibition of HBV infection compared with HDV infection", "setting": "HBV [2]; parallel experiments", "value": "not significantly different"}, {"measurement": "Inhibition of HBV infection", "setting": "HBV [2]; primary human hepatocytes, HBV RNA", "value": "there was inhibition"}, {"measurement": "Fraction remaining in the supernatant after ultracentrifugation", "setting": "[3]", "value": "> 85", "unit": "%"}]}, {"compound": "acylated peptide: synthetic peptide corresponding to positions 2-48 of the ayw PreS1, with myristoylation at the N terminal glycine [reference compound]", "values": [{"measurement": "Inhibition of HDV replication compared with S1-IA and S1S2-IA", "setting": "HDV; primary human hepatocytes, 2, 10 and 50 nM", "value": "more inhibition than the two IA"}]}, {"compound": "α-interferon", "values": [{"measurement": "Patients in whom effective", "setting": "HBV [4]", "value": "about 33%"}]}]}
